From US20260297031A1, “HYDROXYLAMINE-BASED BCR-ABL1 INHIBITORS FOR TREATMENT OF CANCER” (University of Georgia Research Foundation, Inc., priority 2023, published 2026)
“Also recorded” adds a separate entry of the source.

Columns and labels:
[1] = test system: P-glycoprotein (P-gp) and/or breast cancer resistance protein (BCRP); details: cited from earlier work
hERG channel = hERG channel (Homo sapiens, UniProt Q12809); design: expressed in transfected cells; host or cells: HEK 293; details: cited from earlier work
BCR-ABL1 M351T = target: T1, BCR-ABL1 M351T (Homo sapiens, UniProt P00519, M351T); experiment: KinaseProfiler radiometric kinase assay, BCR-ABL1 M351T; assay type: biochemical; details: [ATP] = 10 μM; mean of n = 2
T1 construct: BCR (fusion partner, as the printed name BCR-ABL1 says)

cSRC = cSRC (Homo sapiens, UniProt P12931); experiment: KinaseProfiler radiometric kinase assay, cSRC wt; assay type: biochemical; details: for IC50: [ATP] = 10 μM, mean of n = 2
[2] = Metabolic stability in human hepatocytes; details: for remaining at 0.5 min / remaining at 0.5 h / remaining at 1 h / remaining at 2 h: hepatocytes
Protocol: Metabolic Stability in Hepatocytes (Independently Performed by Pharmaron Inc., Ninqbo, CN)
After thawing was complete, hepatocytes were transferred into a 50 mL conical tube containing thawing medium and the tube was then placed into a centrifuge and spun at 100 g for 10 min. […] Using AO/PI staining, cells were counted to determine the viable cell density. […] Subsequently, 2 μL of the 100 μM test compounds or control compound solutions was transferred into the respective wells of the 96-well non-coated plate to start the reaction. […] Aliquots of 100 μL of the supernatant were then diluted by 100 μL of ultra-pure water, and the mixture was analyzed by LC-MS/MS.
All calculations were carried out using Microsoft Excel. Peak areas were determined from extracted ion chromatograms. The in-vitro half-life (t1/2) of parent compound was determined by regression of the percent parent disappearance vs. time curve.

MDCKII-MDR1 cells = experiment: MDCKII-MDR1 permeability; details: MDCKII-MDR1
Protocol: MDCKII-MDR1 Permeability (Independently Performed By: Pharmaron Inc., Ninqbo, CN)
To each well of the Transwell insert and reservoir were added 50 μL and 25 mL of cell culture medium, respectively.
To determine the rate of drug transport in the apical to basolateral direction, 125 μL of the working solution of either test compounds or control compounds was added to the Transwell insert (apical compartment) and a 50 μL sample was immediately transferred from the apical compartment to 200 μL of acetonitrile containing internal standard (100 nM alprazolam, 200 nM caffeine, and 100 nM tolbutamide) in a new 96-well plate as the initial donor sample (A-B). The sample was then vortexed at 1,000 rpm for 10 min. The receiver plate (basolateral compartment) wells were then filled with 235 μL transport buffer. To determine the rate of drug transport in the basolateral to apical direction, 285 μL of the working solution of either test compounds or control compounds was added to the receiver plate (basolateral compartment) wells and a 50 μL of sample was immediately transferred from the basolateral compartment to 200 μL of acetonitrile containing internal standard in a new 96-well plate as the initial donor sample (B-A). The sample was vortexed for 10 min at 1,000 rpm. The Transwell insert (apical compartment) was then filled with 75 μL of transport buffer and the apical to basolateral direction and the basolateral to apical direction were done at the same time. […] After incubation, 50 μL samples from donor sides (apical compartment for Ap→BI flux, and basolateral compartment BI→Ap) and receiver sides (basolateral compartment for Ap→BI flux, and apical compartment for BI→Ap) were transferred to wells of a new 96-well plate, followed by the addition of 200 μL acetonitrile containing internal standard. […] An aliquot of 100 μL of the supernatant was mixed with an appropriate volume of ultra-pure water before LC-MS/MS analysis.
(§1) To monitor for monolayer integrity, Lucifer yellow leakage was determined after the 2 h transport period. This began by preparing a stock solution of Lucifer yellow in DMSO and diluted with HBSS (10 mM HEPES, pH 7.4.) to reach a final concentration of 100 μM. To each Transwell insert (apical compartment) was then added 100 μL of the Lucifer yellow solution, followed by filling the wells in the receiver plate (basolateral compartment) with 300 μL of HBSS (10 mM HEPES, pH 7.4).
(§2) The efflux ratio was determined using the following equation: […]

[3] = Plasma protein binding by equilibrium dialysis, human plasma; assay type: in vitro ADME; details: human plasma; for % Unbound: 360 min, 5 µM
Protocol: Plasma Protein Binding by Equilibrium Dialysis (Independently Performed by Pharmaron Inc., Ninqbo, CN)
Initially, 1 mM solutions of test compounds and the control compound (Ketoconzaole) were prepared in DMSO. After this, dialysis membranes were soaked in ultrapure water for 60 min to separate strips, followed by 20% aq. ethanol for 20 min, and finally in a dialysis buffer for 20 min. […] After this, 597 μL of blank plasma solution followed by 3 μL of the working solutions of either test compounds or control compound were added to a new plastic plate or separate plastic tube and the solutions were vortexed at 1,000 rpm for 2 min. Immediately after this, 50 μL of spiked plasma solution suspension was transferred to a 96-well plate to act as T=0 control. The remaining samples were treated in the same manner, whereby all remaining spiked plasma solutions were added to the incubator for the duration of the study.
Cells were then loaded with 120 μL of the plasma samples and dialyzed against an equal volume of dialysis buffer (PBS). […] At the end of incubation, the lid was removed and 50 μL of post-dialysis samples were removed from both buffer and plasma solution chambers into a separate 96-well plate for analysis. The plasma solutions (50 μL) were then added to the buffer samples along with an equal volume of PBS (50 μL) to the collected plasma solution samples. The plate was shaken at 1,000 rpm for 2 min and 400 μL of acetonitrile containing an appropriate internal standard was added to precipitate protein and release compound. The samples were then vortexed at 1,000 rpm for an additional 10 min followed by centrifugation at 3,220 g for 30 min. Supernatant (250 μL) was then added to a new 96-well plate and centrifuged again at 3,220 g for 30 min and 100 μL of this supernatant was then added to a new 96-well plate for analysis. The samples were analyzed by LC-MS/MS and 100 μL of distilled water was added to each sample prior to analysis.
Concentrations of test compounds and control compound in buffer and plasma solution chambers was determined and percentages of test compounds and control compound bound using the following equations (mean of n=2 replicates): […]

[4] = Metabolic stability in mouse hepatocytes; assay type: in vitro ADME; details: read-out: Remaining Percentages
Protocol: All calculations were carried out using Microsoft Excel. Peak areas were determined from extracted ion chromatograms.

mutant BCR-ABL1 = experiment: KinaseProfiler radiometric kinase assay, mutant BCR-ABL1 kinases as a group; assay type: biochemical, human
Source text: Biochemical Human RTK Kinase Enzymatic Radiometric Assay, KinaseProfiler (Independently Performed by Eurofins Cerep SA, FR)

BCR-ABL1 Q252H = target: T2, BCR-ABL1 Q252H (Homo sapiens, UniProt P00519, Q252H); experiment: KinaseProfiler radiometric kinase assay, BCR-ABL1 Q252H; assay type: biochemical; details: [ATP] = 10 μM; mean of n = 2
T2 construct: BCR (fusion partner, as the printed name BCR-ABL1 says)

Caco-2 cells = experiment: Caco-2 permeability; details: Papp (b − a/a − b)
Protocol: Caco-2 Permeability (Independently Performed by Pharmaron Inc., Ningbo, CN)
To each well of the Transwell insert and reservoir were added 50 μL and 25 mL of cell culture medium, respectively. […] Following this, the Caco-2 plate was removed from the incubator and the monolayer washed twice with pre-warmed HBSS (10 mM HEPES, pH 7.4).
To determine the rate of drug transport in the apical to basolateral direction, 125 μL of the working solution of either test compounds or control compounds was added to the Transwell insert (apical compartment) and a 50 μL sample was immediately transported from the apical compartment to 200 μL of acetonitrile containing internal standard (100 nM alprazolam, 200 nM Caffeine and 100 nM tolbutamide) in a new 96-well plate as the initial donor sample (A-B). The sample was then vortexed at 1,000 rpm for 10 min. The receiver plate (basolateral compartment) wells were then filled with 235 μL of transport buffer. To determine the rate of drug transport in the basolateral to apical direction, 285 μL of the working solution of either test compounds or control compounds was added to the receiver plate wells (basolateral compartment) and a 50 μL sample was immediately transferred from the basolateral compartment to 200 μL of acetonitrile containing internal standard in a new 96-well plate as the initial donor sample (B-A). The sample was vortexed at 1,000 rpm for 10 min. The Transwell insert (apical compartment) was then filled with 75 μL of transport buffer and the apical to basolateral direction and the basolateral to apical direction were done at the same time. […] After incubation, 50 μL samples from donor sides (apical compartment for Ap→BI flux, and basolateral compartment for BI→Ap) and receiver sides (basolateral compartment for Ap→BI flux, and apical compartment for BI→Ap) were transferred to wells of a new 96-well plate, followed by the addition of 200 μL acetonitrile containing internal standard. All samples were vortexed for 10 min and then centrifuged at 3,220 g for 40 min. A 150 μL aliquot of the supernatant was then mixed with an appropriate volume of ultra-pure water prior to LC-MS/MS analysis.
as §1, with “which was” for “and”
as §2

Chain of cSRC (P12931 whole entry): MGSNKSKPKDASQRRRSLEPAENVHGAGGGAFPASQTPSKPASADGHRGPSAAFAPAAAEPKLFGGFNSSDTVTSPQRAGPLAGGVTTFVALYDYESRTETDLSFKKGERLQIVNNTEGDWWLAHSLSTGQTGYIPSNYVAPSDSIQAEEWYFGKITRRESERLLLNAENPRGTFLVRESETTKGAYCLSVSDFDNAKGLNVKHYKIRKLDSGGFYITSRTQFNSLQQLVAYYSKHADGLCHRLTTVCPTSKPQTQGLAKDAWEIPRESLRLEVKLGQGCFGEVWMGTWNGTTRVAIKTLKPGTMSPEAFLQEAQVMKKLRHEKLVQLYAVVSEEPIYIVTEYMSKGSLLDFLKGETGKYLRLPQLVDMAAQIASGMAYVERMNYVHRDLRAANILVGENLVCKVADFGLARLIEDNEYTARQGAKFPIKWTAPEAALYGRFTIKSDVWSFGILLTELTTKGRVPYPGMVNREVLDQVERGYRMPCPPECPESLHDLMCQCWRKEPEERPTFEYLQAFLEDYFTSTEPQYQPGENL
Chain of hERG channel (Q12809 whole entry): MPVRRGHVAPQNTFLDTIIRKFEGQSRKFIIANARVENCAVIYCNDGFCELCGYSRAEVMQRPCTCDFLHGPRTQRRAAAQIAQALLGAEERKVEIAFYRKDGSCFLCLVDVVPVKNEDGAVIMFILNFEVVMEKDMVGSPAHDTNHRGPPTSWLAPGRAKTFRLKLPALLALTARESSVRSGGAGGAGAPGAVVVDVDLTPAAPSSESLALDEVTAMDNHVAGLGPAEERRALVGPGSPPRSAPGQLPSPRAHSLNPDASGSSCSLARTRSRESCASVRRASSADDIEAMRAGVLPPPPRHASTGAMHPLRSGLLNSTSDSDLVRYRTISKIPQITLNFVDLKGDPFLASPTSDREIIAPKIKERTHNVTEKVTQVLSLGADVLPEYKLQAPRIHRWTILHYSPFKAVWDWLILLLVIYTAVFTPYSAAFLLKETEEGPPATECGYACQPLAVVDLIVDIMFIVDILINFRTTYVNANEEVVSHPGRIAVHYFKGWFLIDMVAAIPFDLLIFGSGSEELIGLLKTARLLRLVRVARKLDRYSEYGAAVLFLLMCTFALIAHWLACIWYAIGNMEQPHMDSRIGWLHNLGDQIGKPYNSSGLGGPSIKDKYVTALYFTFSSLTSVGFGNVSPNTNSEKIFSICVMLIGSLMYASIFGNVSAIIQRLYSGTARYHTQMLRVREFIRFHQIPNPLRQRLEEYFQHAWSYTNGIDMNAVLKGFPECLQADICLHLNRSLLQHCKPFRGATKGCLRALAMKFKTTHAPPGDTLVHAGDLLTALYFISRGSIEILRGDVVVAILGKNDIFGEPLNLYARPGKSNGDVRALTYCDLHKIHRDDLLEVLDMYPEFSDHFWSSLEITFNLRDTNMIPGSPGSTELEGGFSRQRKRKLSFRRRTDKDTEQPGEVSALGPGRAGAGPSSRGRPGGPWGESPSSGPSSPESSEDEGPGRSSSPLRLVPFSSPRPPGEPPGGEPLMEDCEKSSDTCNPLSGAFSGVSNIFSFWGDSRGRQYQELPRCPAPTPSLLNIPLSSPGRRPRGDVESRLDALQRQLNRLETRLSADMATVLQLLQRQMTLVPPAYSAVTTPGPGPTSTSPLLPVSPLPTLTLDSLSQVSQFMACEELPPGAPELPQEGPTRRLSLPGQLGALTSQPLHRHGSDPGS

Q: Which results are given for `Cc1nc(Nc2ncc(C(=O)Nc3c(C)cccc3Cl)s2)cc(N2CCN(CCO)CC2)n1` [Dasatinib, dasatinib]?
A: efflux transporter substrate (background) [1]: P-gp substrates; also recorded: potent substrates for efflux transporters; hERG liability, in words (background) (hERG channel): reduced affinity for the hERG ion channel

Q: Which IC50 (BCR-ABL1 M351T) does the source give for `COc1cc(Nc2c(C#N)cnc3cc(OCCON4CCN(C)CC4)c(OC)cc23)ccc1Cl` [Compound 19] here?
A: Its IC50 is 1 nM.

Q: And the IC50 (cSRC)?
A: Its IC50 is 2 nM.

Q: And the “stability in hepatocytes, in words” value [2]?
A: The value was “good stability in human hepatocytes”.

Q: What about the remaining at 0.5 min [2] of the same compound?
A: Its remaining at 0.5 min is 100%.

Q: What about the remaining at 0.5 h [2] of the same compound?
A: Its remaining at 0.5 h is 68.1%.

Q: What about the remaining at 1 h [2] of the same compound?
A: Its remaining at 1 h is 50.2%.

Q: And the remaining at 2 h [2]?
A: The remaining at 2 h was 25.5%.

Q: And the “efflux (P-gp), in words” value (MDCKII-MDR1 cells)?
A: Its value is “reduced efflux ratios”.

Q: What about the “permeability in MDCKII-MDR1 cells, in words” value (MDCKII-MDR1 cells) of the same compound?
A: Its value is “markedly improved permeability”.

Q: What does the source list for `CC(=O)N1CCN(c2ccc(OCC3COC(Cn4ccnc4)(c4ccc(Cl)cc4Cl)O3)cc2)CC1` (stereo not shown) [Ketoconazole]?
A: % Unbound [3]: 0.80%; fraction unbound at 6 h, 5 µM ([3]; read-out: % Bound (converted)): 0.008

Q: For `O=C(Nc1ccc(OC(F)(F)Cl)cc1)c1cnc(N2CC[C@@H](O)C2)c(-c2ccn[nH]2)c1` [Asciminib, asciminib], which “efflux transporter substrate (background)” value [1] is on record?
A: Its value is “P-gp substrates; also recorded: potent substrates for efflux transporters”.

Q: Which remaining at 0.5 h [2] does the source give for `COc1ccc(CCN(C)CCCC(C#N)(c2ccc(OC)c(OC)c2)C(C)C)cc1OC` (stereo not shown) [Verapamil, reference compound] here?
A: Its remaining at 0.5 h is 35.6%.

Q: What about the remaining at 1 h [2] of the same compound?
A: Its remaining at 1 h is 17.7%.

Q: What about the remaining at 2 h [2] of the same compound?
A: The remaining at 2 h was 4.83%.

Q: What about the remaining at […] ([4]; 15 min) of the same compound?
A: The remaining at […] was 16.7%.

Q: What about the remaining at 0.5 h ([4]; 30 min) of the same compound?
A: Its remaining at 0.5 h is 4.39%.

Q: What about the remaining at 1 h ([4]; 60 min) of the same compound?
A: The remaining at 1 h was 1.24%.

Q: What does the source list for `COc1cc2c(Nc3cccc(Cl)c3F)c(C#N)cnc2cc1OCCON1CCN(C)CC1` [Compound 16, 4-((3-Chloro-2-flurophenyl)amino)-6-methoxy-7-(2-((4-methylpiperazin-1-yl)oxy)ethoxy)quinoline-3-carbonitrile]?
A: remaining at 0.5 min [2]: 100%; remaining at 0.5 h [2]: 66.9%; remaining at 1 h [2]: 45.1%; remaining at 2 h [2]: 18.6%

Q: What does the source list for `COc1cc2c(Nc3ccc(Cl)c(OC)n3)c(C#N)cnc2cc1OCCON1CCN(C)CC1` [Compound 21, 4-((5-Chloro-6-methoxypyridin-2-yl)amino)-6-methoxy-7-(2-((4-methylpiperazin-1-yl)oxy)ethoxy)quinoline-3-carbonitrile]?
A: cSRC kinase activity, in words (cSRC): excellent activity; BCR-ABL1 kinase activity, in words (mutant BCR-ABL1): excellent activity

Q: With `COc1cc2c(Nc3cccc(OC)c3F)c(C#N)cnc2cc1OCCON1CCN(C)CC1` [Compound 18, 4-((2-Fluoro-3-methoxyphenyl)amino)-6-methoxy-7-(2-((4-methylpiperazin-1-yl)oxy)ethoxy)quinoline-3-carbonitrile] as the compound, how does the IC50 (BCR-ABL1 M351T) read?
A: Its IC50 is 24 nM.

Q: And the IC50 (BCR-ABL1 Q252H)?
A: The IC50 was 30 nM.

Q: And the IC50 (cSRC)?
A: Its IC50 is 34 nM.

Q: What about the IC50 (mutant BCR-ABL1; read-out: IC50 against (imatinib resistant / relevant) mutant BCR-ABL1 kinases, group of mutants) of the same compound?
A: The IC50 was no less than 15 nM.

Q: And the “% Unbound” value [3]?
A: The value was 12.97%.

Q: And the remaining at 0.5 min [2]?
A: The remaining at 0.5 min was 100%.

Q: What about the remaining at 0.5 h [2] of the same compound?
A: The remaining at 0.5 h was 95.7%.

Q: And the remaining at 1 h [2]?
A: Its remaining at 1 h is 80.4%.

Q: And the remaining at 2 h [2]?
A: The remaining at 2 h was 54.9%.

Q: What about the “Efflux Ratio” value (Caco-2 cells) of the same compound?
A: The value was 12.36.

Q: With `Cc1cn(-c2cc(NC(=O)c3ccc(C)c(Nc4nccc(-c5cccnc5)n4)c3)cc(C(F)(F)F)c2)cn1` [Nilotinib, nilotinib] as the compound, how does the “hERG liability, in words (background)” value (hERG channel) read?
A: Its value is “inhibition of the human Ether-b-go-go-Related Gene (hERG) potassium ion channel”.
